Measurements as given in the NIST ThermoML archive (doi:10.1016/j.tca.2016.09.005).

Test: xn = mol fraction of the nth substance listed
Conditions: 100 kPa, Liquid; for speed of sound: Frequency=3 MHz, Sing-around technique in a fixed-path interferometer; for mass density: Vibrating tube method

OCCCO [propan-1,3-diol] + O
Conditions	mass density, 283.15 K [kg/m3]	mass density, 293.15 K [kg/m3]	mass density, 303.15 K [kg/m3]	mass density, 313.15 K [kg/m3]	speed of sound, 283.15 K [m/s]	speed of sound, 293.15 K [m/s]	speed of sound, 303.15 K [m/s]	speed of sound, 313.15 K [m/s]
x2 = 0	1058.85	1052.61	1046.36	1040.07	1659.5	1636.3	1613.6	1591.1
x2 = 0.1022	1059.27	1053.04	1046.79	1040.48	1672.9	1650.1	1627.2	1605
x2 = 0.201	1059.47	1053.26	1047.01	1040.68	1686.6	1664	1641.4	1618.9
x2 = 0.2987	1059.49	1053.3	1047.05	1040.7	1702	1679.4	1656.8	1634.1
x2 = 0.3998	1059.07	1052.91	1046.67	1040.3	1717.3	1695.2	1672.8	1650.2
x2 = 0.4997	1057.91	1051.82	1045.61	1039.25	1732	1710.5	1688.7	1666.4
x2 = 0.5997	1055.48	1049.54	1043.42	1037.1	1742.7	1722.7	1701.9	1680.5
x2 = 0.6999	1050.47	1044.85	1039.01	1032.92	1742	1725.1	1707.1	1688.1
x2 = 0.7999	1041.86	1036.89	1031.59	1025.94	1718.2	1707.4	1695	1680.9
x2 = 0.8997	1025.27	1021.75	1017.64	1012.95	1637.8	1641.2	1641.6	1639

OCCCO [propan-1,3-diol] + CO
Conditions	mass density, 283.15 K [kg/m3]	mass density, 293.15 K [kg/m3]	mass density, 303.15 K [kg/m3]	mass density, 313.15 K [kg/m3]	speed of sound, 283.15 K [m/s]	speed of sound, 293.15 K [m/s]	speed of sound, 303.15 K [m/s]	speed of sound, 313.15 K [m/s]
x2 = 0	1058.85	1052.61	1046.36	1040.07	1659.5	1636.3	1613.6	1591.1
x2 = 0.05	1052.58	1046.29	1039.98	1033.62	1645.8	1622.5	1599.5	1576.8
x2 = 0.0996	1045.92	1039.56	1033.18	1026.76	1629.2	1605.8	1582.6	1559.7
x2 = 0.1503	1038.75	1032.32	1025.88	1019.37	1613.8	1590.1	1566.8	1543.7
x2 = 0.2	1031.38	1024.87	1018.34	1011.73	1596.8	1572.8	1549.2	1525.8
x2 = 0.2502	1023.44	1016.87	1010.26	1003.55	1578.8	1554.7	1530.8	1507.1
x2 = 0.2998	1015.08	1008.41	1001.72	994.98	1560.7	1536.1	1511.9	1487.9
x2 = 0.3491	1006.18	999.42	992.64	985.81	1540.2	1515.4	1490.9	1466.6
x2 = 0.3998	996.52	989.65	982.76	975.82	1519.5	1494.2	1469.3	1444.7
x2 = 0.4497	986.31	979.34	972.34	965.29	1497	1471.6	1446.3	1421.4
x2 = 0.5	975.38	968.29	961.17	953.99	1474	1448	1422.3	1397
x2 = 0.5501	963.77	956.54	949.29	941.97	1450.2	1423.8	1397.7	1371.9
x2 = 0.5994	951.07	943.69	936.28	928.82	1423.3	1396.4	1369.7	1343.4
x2 = 0.6501	936.86	929.32	921.74	914.15	1394.9	1367.3	1340.1	1313.3
x2 = 0.6998	922.43	914.7	906.94	899.12	1366.9	1338.6	1310.7	1283.3
x2 = 0.7499	906.27	898.33	890.37	882.34	1336	1307.1	1278.5	1250.5
x2 = 0.8	889.44	881.29	873.11	864.86	1305	1275.3	1246.1	1217.4
x2 = 0.8501	869.9	861.5	853.06	844.55	1269.1	1238.8	1208.7	1179.2
x2 = 0.9	849.27	840.58	831.86	823.05	1233.7	1202.3	1171.3	1140.9
x2 = 0.9501	826.76	817.77	808.72	799.59	1196	1164	1132.1	1100.8
